From patent publication US12275711B2, “Compounds having excited state intramolecular proton transfer (ESIPT) character for use in treating and/or preventing sunburn and/or preventing U.V. damage” (UNIVERSITY OF THE WITWATERSRAND, JOHANNESBURG, priority 2019, dated 2025)
Like-named read-outs stand apart in the source and are kept apart here. Blank lines part the entries; values can stand above or below the compound they belong to.

Assays:
[1] = in L mol-1 cm-1, cited from earlier work
[2] = UV absorbance, molar absorptivity coefficients (ε) of the synthesized compounds; type: physicochemical
Experimental: The synthesized compounds 4c, 5, 6, 9, 10, 13a, 13b, 14, 20, 21, and 23, were analysed for their UV absorbances and their molar absorptivity coefficients (e) were determined.

Compound: CCCCC(CC)COC(=O)C=Cc1ccc(OC)cc1 (centres unmarked) [2-ethylhexyl 4-methoxycinnamate]
experimental molar absorption coefficient ([1]; at 356 nm): 39,470

Compound: CCCCCCCCCCCCCCCc1cccc(O)c1C(=O)c1ccccc1O [Compound 4c, [2-(Hydroxy)-6-pentadecylphenyl](2-hydroxyphenyl)methanone]
experimental ε value (molar absorptivity coefficient) ([2]; at 261 nm): 36,366 L mol^−1 cm^−1
experimental ε value (molar absorptivity coefficient) ([2]; at 335 nm): 10,538 L mol^−1 cm^−1

Compound: CCCCCCCCCCCCCCCc1cccc(O)c1C(=O)c1cc(OC)ccc1O [Compound 5, (2-Hydroxy-5-methoxyphenyl)(2-hydroxy-6-pentadecylphenyl)methanone]
ε value (molar absorptivity coefficient) ([2]; at 265 nm): 18,439 L mol^−1 cm^−1
ε value (molar absorptivity coefficient) ([2]; at 374 nm): 8,785 L mol^−1 cm^−1

Compound: CCCCCCCCCCCCCCCc1cccc(O)c1C(=O)c1cc(OC)c(OC)cc1O [Compound 6, (2-Pentadecyl-6-hydroxyphenyl)(2-hydroxy-4,5-dimethoxyphenyl)methanone]
ε value (molar absorptivity coefficient) ([2]; at 287 nm): 34,096 L mol^−1 cm^−1
ε value (molar absorptivity coefficient) ([2]; at 358 nm): 25,014 L mol^−1 cm^−1

Compound: CCCCCCCCCCCCCCCc1ccc(C(=O)c2ccccc2)c(O)c1 [Compound 9, (2-Hydroxy-4-pentadecylphenyl)(phenyl)methanone]
experimental ε value (molar absorptivity coefficient) ([2]; at 279 nm): 47,909 L mol^−1 cm^−1

Compound: COc1ccc(C(=O)CC(=O)c2ccc(C(C)(C)C)cc2)cc1 [avobenzone]
experimental molar absorption coefficient ([1]; at 310 nm): 31,670

Compound: COc1ccc(C(=O)c2ccccc2)c(O)c1 [oxybenzone]
experimental molar absorption coefficient ([1]; at 287 nm): 15,150

Continued, values first:

experimental ε value (molar absorptivity coefficient) ([2]; at 282 nm): 31700 L/mol/cm
Compound: CCCCCCCCCCCCCCCc1ccc(C(=O)c2ccccc2O)c(O)c1 [Compound 10, (2-hydroxy-4-pentadecylphenyl)(2-hydroxyphenyl)methanone]

experimental ε value (molar absorptivity coefficient) ([2]; at 314 nm): 20,403 L mol^−1 cm^−1
Compound: CCCCCCCCCCCCCCCc1ccc(C(=O)/C=C/c2ccccc2)c(O)c1 [Compound 13a, (E)-1-(2-hydroxy-4-pentadecylphenyl)-3-phenylprop-2-en-1-one]

experimental ε value (molar absorptivity coefficient) ([2]; at 314 nm): 39900 L/mol/cm
experimental ε value (molar absorptivity coefficient) ([2]; at 345 nm): 45000 L/mol/cm
Compound: CCCCCCCCCCCCCCCc1ccc2c(=O)c(O)c(-c3ccccc3)oc2c1 [Compound 13b, 3-Hydroxy-7-pentadecyl-2-phenyl-4H-chromen-4-one]

ε value (molar absorptivity coefficient) ([2]; at 254 nm): 23800 L/mol/cm
Compound: CCCCCCCCCCCCCCCc1cc(O)c2c(=O)c3c(O)cccc3oc2c1 [Compound 14, 1,8-Dihydroxy-3-pentadecyl-9H-xanthen-9-one]

ε value (molar absorptivity coefficient) ([2]; at 278 nm): 29,252 L mol^−1 cm^−1
Compound: CCCCCCCCCCCCCCCc1ccc(-c2nc(-c3ccccc3)nc(-c3ccccc3)n2)c(O)c1 [Compound 20, 2-(4,6-Diphenyl-1,3,5-triazin-2-yl)-5-pentadecylphenol]

experimental ε value (molar absorptivity coefficient) ([2]; at 300 nm): 21,452 L mol^−1 cm^−1
experimental ε value (molar absorptivity coefficient) ([2]; at 364 nm): 12500 L/mol/cm
Compound: CCCCCCCCCCCCCCCc1ccc(-c2nc(-c3ccc(CCCCCCCCCCCCCCC)cc3O)nc(-c3ccc(CCCCCCCCCCCCCCC)cc3O)n2)c(O)c1 [Compound 21, 6,6′,6″-(1,3,5-Triazine-2,4,6-triyl)tris(3-pentadecylphenol)]

experimental ε value (molar absorptivity coefficient) ([2]; at 293 nm): 3,373 L mol^−1 cm^−1
experimental ε value (molar absorptivity coefficient) ([2]; at 326 nm): 6,367 L mol^−1 cm^−1
Compound: CCCCCCCCCCCCCCCc1ccc(-c2nnc(-c3ccc(OC)c(OC)c3)o2)c(O)c1 [Compound 23, 2-[5-(3,4-Dimethoxyphenyl)-1,3,4-oxadiazol-2-yl]-5-pentadecylphenol]
